Results on 1 compound are retold here after publication PMC10086185, “Synthesis, radiolabeling, and evaluation of a (4-quinolinoyl)glycyl-2-cyanopyrrolidine analogue for fibroblast activation protein (FAP) PET imaging” (Frontiers in Bioengineering and Biotechnology, 2023).

The series in a line: Lipid/water partition coefficient in octanol/PBS (log D 7.4). Type of series: physicochemical. To be noted: pH 7.4. How it is done:
The lipid/water partition coefficient of [^18F]3 was tested in octanol/PBS mixtures, following the published literature reports ([Li et al., 2019]) and presented as log D 7.4 values. Briefly, a small volume of [^18F]3 was added into an octanol/water mixture, and then, a series of diluted octanol/PBS mixtures was obtained, as described in the literature. The CPM in octanol and the PBS layer was obtained in a Wizard 2470 gamma counter (PerkinElmer) and was used to calculate the lipid/PBS partition coefficient. Several continuous and stable partition coefficient values were selected to calculate the log D 7.4 values.

For orientation: logD means the decadic logarithm of the distribution of all forms, ionised or not, between an organic phase and buffer at a given pH. Lower therefore signals lower lipophilicity.

For `N#C[C@@H]1CC(F)(F)CN1C(=O)CNC(=O)c1ccnc2ccc([18F])cc12` [[^18F]3], the logD is 1.11.
